The source made the active and inactive calls. The rule behind the calls is not given here.

Vessel count % control data for 89 molecules are collected here from PubChem BioAssay AID732 (Emory University Molecular Libraries Screening Center, 2007).

This assay deals with in vivo angiogenesis, blood vessel count. The assay can be described thus: reduction of blood vessel formation in vivo – HTS, in vivo study (AID 732).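 Note: zebrafish embryos dosed at one day post fertilization; 0% = reference inhibitor and 100% = plate mean.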 The settings on record: hits give low values;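 tested at 30 µM in the well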.
For the molecule `OC[C@H]1O[C@@H](n2cnc3c(N[C@H]4CC5CCC4C5)ncnc32)[C@H](O)[C@@H]1O` (some centres undefined), the vessel count % control is 77.1% (inactive).
For `N#CC(Cc1ccc(O)c(O)c1)C(=O)N1CCc2ccccc21` (centres undefined) the value was 132% (inactive); for `CCCN(CCC)[C@H]1CCc2c(F)ccc(O)c2C1`, 93.1% (inactive); for `CC12CC3CC(C)(C1)CC(N)(C3)C2`, 128% (inactive).
For `c1cnc(N2CCN(Cc3ccc4c(c3)OCO4)CC2)nc1` the value was 106% (inactive); for `CCN(CCCl)Cc1ccccc1Br`, 99.8% (inactive).
In the case of `O=P1(N(CCCl)CCCl)NCCCO1` (centres undefined), the vessel count % control is 105% (inactive).
For `CCC(NC(C)C)C(O)c1ccc(O)c(O)c1` (centres undefined) the value was 85.9% (inactive).
The same measure for `O=C(c1ccc2c(c1)OCCO2)N1CCCCC1`: 106% (inactive); for `c1ccc(C2CC2)c(OCC2=NCCN2)c1`: 104% (inactive); for `C1CCC(N=C(NC23CC4CC(CC(C4)C2)C3)N2CCOCC2)CC1`: 111% (inactive).
The same measure for `COC1(C2=NCCN2)COc2ccccc2O1` (centres undefined): 121% (inactive); for `CCNC(=O)C1OC(n2cnc3c(NCc4ccccc4)ncnc32)C(O)C1O` (centres undefined): 110% (inactive).
Regarding `CCCCCCCCCCC/C=C\C(C)(C)/C=C\CCCC(=O)O`, the vessel count % control was 79.5% (inactive).
On to `CCn1nc(C(=O)O)c(=O)c2cc3c(cc21)OCO3`, for which the vessel count % control is 102% (inactive).
The same measure for `CCCCCCCCCCCCCCCC(=O)NCC(COP(=O)([O-])OCC[N+](C)(C)C)OCC` (centres undefined): 115% (inactive).
For `c1ccc2c(N3CCNCC3)cccc2c1` the value was 97.1% (inactive).
The same measure for `COc1ccccc1CNCCCCCCNCCCCCCCCNCCCCCCNCc1ccccc1OC`: 113% (inactive); for `C=CC(N)CCC(=O)O` (centres undefined): 85.7% (inactive).
Take `CN(C)C(=O)Oc1cccc([N+](C)(C)C)c1`: the vessel count % control is 87.6% (inactive).
The same measure for `CC(C)CN(C)c1nc(N)c(C(=O)N=C(N)N)nc1Cl`: 101% (inactive); for `Ic1ccc(N2CCN(Cc3c[nH]c4ncccc34)CC2)cc1`: 99.4% (inactive); for `O=S(=O)(NCCNC/C=C/c1ccc(Br)cc1)c1cccc2cnccc12`: 90.3% (inactive).
For `CC[C@H](C)C(=O)O[C@H]1CCC=C2C=C[C@H](C)[C@H](CC[C@@H]3C[C@@H](O)CC(=O)O3)[C@H]21` the value was 88.5% (inactive); for `CN(C)CCC(c1ccc(Br)cc1)c1ccccn1` (centres undefined), 92.3% (inactive); for `CN1CCC2(CCN3CCc4c(oc5ccccc45)C3C2)N(C)C1=O` (centres undefined), 87.3% (inactive).
With `COc1cc(CC(=O)O)ccc1O`, the vessel count % control is 116% (inactive).
For `COc1ccc2c(c1)CCC1C2CC[C@@]2(C)C1CC[C@@H]2NCCCCCCN1C(=O)C=CC1=O` (some centres undefined) the value was 0% (inactive); for `COc1ccc2c(c1)c(CC(=O)N1CCOCC1)c(C)n2C(=O)c1ccc(Cl)cc1`, 55% (inactive); for `O=C(CCCN1CCC(O)(c2cccc(C(F)(F)F)c2)CC1)c1ccc(F)cc1`, 60.2% (inactive).
The same measure for `CC(C)(C)c1onc(OCP(=O)(O)O)c1CC(N)C(=O)O` (centres undefined): 88.9% (inactive); for `NC(N)=N/N=C/c1c(Cl)cccc1Cl`: 112% (inactive); for `CCCN(CC1CC1)c1nc(C)nc(Nc2c(Cl)cc(Cl)cc2Cl)c1Cl`: 125% (inactive).
As for `CC(C)(C)NCC(O)COc1nsnc1N1CCOCC1` (centres undefined), the vessel count % control was 101% (inactive).
Turning to `CCCn1c(=O)c2[nH]c(-c3ccc(OCC(=O)Nc4ccc(C#N)cc4)cc3)nc2n(CCC)c1=O`, the vessel count % control is 84.9% (inactive).
Regarding `C#C[C@]1(O)CC[C@H]2[C@@H]3CCC4=Cc5oncc5CC4(C)[C@H]3CCC21C` (some centres undefined), the vessel count % control was 118% (inactive).
Regarding `CC(C)(C)c1ccc(S(=O)(=O)/C=C/C#N)cc1`, the vessel count % control was 0% (inactive).
For `NC(=NCCC[C@H](N)C(=O)O)NO` the value was 99% (inactive).
For `Oc1ccccc1O` the value was 96.4% (inactive); for `O=C(Cc1ccc(Cl)c(Cl)c1)N1CCCCC1CN1CCCC1` (centres undefined), 114% (inactive); for `CCC1(O)CC2CN(CCc3c([nH]c4ccccc34)[C@@](C(=O)OC)(c3cc4c(cc3OC)N(C)C3[C@]45CCN4CC=C[C@@](CC)([C@@H](OC(C)=O)[C@]3(O)C(=O)OC)[C@H]45)C2)C1` (some centres undefined), 112% (inactive).
On to `N#Cc1c(-c2ccccc2)no[n+]1[O-]`, for which the vessel count % control is 120% (inactive).
`Oc1cc(O)cc(/C=C/c2ccc(O)c(O)c2)c1`: the vessel count % control is 101% (inactive).
Turning to `COc1ccc2c(c1)[C@@]13CCCC[C@H]1[C@@H](C2)NCC3`, the vessel count % control is 78.3% (inactive).
The same measure for `NC1CCN(c2cccc(Cl)n2)CC1`: 91.5% (inactive); for `CCCOc1ccccc1-c1nc2n[nH]nc2c(=O)[nH]1`: 119% (inactive); for `CN(Cc1cnc2nc(N)nc(N)c2n1)c1ccc(C(=O)N[C@@H](CCC(=O)O)C(=O)O)cc1`: 112% (inactive).
For `O=C1c2c(O)cc(O)cc2OC(c2ccc(O)c(O)c2)C1O` (centres undefined) the value was 80.8% (inactive); for `CCCNC(C)C(=O)Nc1ccccc1C` (centres undefined), 108% (inactive); for `CNCCC(Oc1ccccc1C)c1ccccc1` (centres undefined), 122% (inactive).
The same measure for `CCCn1c(=O)[nH]c(=O)c2[nH]cnc21`: 97.5% (inactive); for `COC(=O)[C@@H](N)CCCN=C(N)N[N+](=O)[O-]`: 95% (inactive); for `COc1cc(-c2ccc(=O)[nH]n2)ccc1OC(F)F`: 75.5% (inactive).
For the molecule `O=C(O)CCCc1ccc(N(CCCl)CCCl)cc1`, the vessel count % control is 118% (inactive).
For `COc1cccc(-c2cc(=O)c3ccccc3o2)c1N` the value was 73.8% (inactive); for `CN[C@@H](C)[C@H](O)c1ccccc1`, 91.4% (inactive).
In the case of `Clc1ccc(N2CCN(Cc3c[nH]c4ncccc34)CC2)cc1`, the vessel count % control was 83.7% (inactive).
For `CC1(C)CCC2=C(O1)c1ccccc1C(=O)C2=O` the value was 65.8% (inactive).
For `Clc1cc(I)cc(Cl)c1NC1=NCCN1` the value was 80.6% (inactive); for `CC(=O)CCCCn1c(=O)c2c(ncn2C)n(C)c1=O`, 109% (inactive).
Regarding `O=Nc1c(-c2c(O)[nH]c3ccc([N+](=O)[O-])cc23)[nH]c2ccc(Br)cc12`, the vessel count % control was 79.3% (inactive).
For `CNCCNS(=O)(=O)c1cccc2cnccc12` the value was 140% (inactive); for `CC(C)C[C@H]1C(=O)N2CCC[C@H]2[C@]2(O)O[C@](NC(=O)[C@@H]3C=C4c5cccc6[nH]c(Br)c(c56)C[C@H]4N(C)C3)(C(C)C)C(=O)N12`, 110% (inactive); for `N=C(N)c1ccc(N)cc1`, 114% (inactive).
The same measure for `CCC1(c2ccc(N)cc2)CCC(=O)NC1=O` (centres undefined): 98.8% (inactive); for `O=C(O)CCC(=O)N1CCCC1C(=O)O` (centres undefined): 109% (inactive); for `NCC1(CC(=O)O)CCCCC1`: 98.7% (inactive).
The same measure for `CN1CCN(c2ccc3ccccc3n2)CC1`: 104% (inactive).
`NCCCCCCNS(=O)(=O)c1cccc2c(Cl)cccc12`: the vessel count % control was 117% (inactive).
The same measure for `Cc1nnc(SCC2=C(C(=O)O)N3C(=O)[C@@H](NC(=O)Cn4cnnn4)[C@H]3SC2)s1`: 90.8% (inactive); for `Cn1c(=O)c2c(nc(/C=C/c3cccc(Cl)c3)n2C)n(C)c1=O`: 72.9% (inactive); for `CN1CCc2cccc3c2C1Cc1ccc(O)c(O)c1-3` (centres undefined): 0% (inactive).
Regarding `O=C1NC(=O)C(c2ccccc2)(c2ccccc2)N1`, the vessel count % control is 92.7% (inactive).
For `CC12NC(Cc3ccccc31)c1ccccc12` (centres undefined) the value was 76.2% (inactive).
For `COc1ccc(CCN(C)CCCC(C#N)(c2cc(OC)c(OC)c(OC)c2)C(C)C)cc1OC` (centres undefined) the value was 102% (inactive); for `CN(C(=O)CCCOc1ccc2[nH]c(=O)ccc2c1)C1CCCCC1`, 94.5% (inactive); for `CCN(CC)C(C)C(=O)N1c2ccccc2Sc2ccccc21` (centres undefined), 94.9% (inactive).
In the case of `CC1(C)CCC(NC(=O)[C@@H](N)CCC(=O)O)CC1`, the vessel count % control was 122% (inactive).
For the molecule `COc1ccc(NC(=O)/C=C/c2ccc(Cl)cc2)cc1`, the vessel count % control is 106% (inactive).
The same measure for `O=c1[nH]c2ccccc2n1C1CCN(CCCC(c2ccc(F)cc2)c2ccc(F)cc2)CC1`: 52.9% (inactive); for `CC(C)C1C2CCC(C2)C1N` (centres undefined): 95.1% (inactive); for `O=[N+]([O-])c1ccc2nc(N3CCNCC3)ccc2c1`: 118% (inactive).
For `NCCCC(=O)O` the value was 109% (inactive).
For `N[C@H](C(=O)O)c1cc(O)cc(O)c1`, the vessel count % control was 108% (inactive).
For `C=CCN1CCC2(C)c3cc(O)ccc3CC1[C@@H]2C` (some centres undefined) the value was 89.5% (inactive); for `COc1cc2c(cc1OC)[C@@H](c1ccccc1)CN(C)CC2`, 91.5% (inactive); for `CCCCCC(O)c1cccc(OCc2ccc3ccccc3n2)c1` (centres undefined), 83.4% (inactive).
The same measure for `Cc1cc(C(C)(C)C)cc(C)c1CC1=NCCN1`: 101% (inactive); for `C=C[C@H]1CN2CCC1C[C@H]2[C@H](O)c1ccnc2ccc(OC)cc12` (some centres undefined): 98% (inactive).
